# Columns and labels:
# mouse epo mRNA = assay: In vivo EPO mRNA stability after injection of lipid encapsulated mouse epo mRNA; set-up: species or system Balb/c mice; conditions: 0.03 and 0.1 mg/kg intravenous, 6 hours after injection, mice
# Protocol: Levels of mRNA in plasma were measured and compared following injection of nanoparticles comprising different cationic lipids. Female Balb/c mice (6-8 week old) were used for evaluation of plasma erythropoietin (epo) levels in vivo following injection of lipid encapsulated mouse epo mRNA. All Formulations were administered intravenously via tail vein injection at a dose of 0.03 and 0.1 mg/kg at a dosing volume of 5 ml/kg. Terminal blood collection was performed via cardiac puncture under 2% isoflurane at 6 hours after Formulation injections. Blood was collected into 0.109 M citrate buffer tube and processed by centrifugation at 5000 rpm for 10 minutes. Serum was collected and epo mRNA levels were analyzed. Results are shown at FIG. 17.
# Factor VII = assay: In vivo mouse Factor VII siRNA knockdown with lipid nanoparticles; set-up: species or system C57BL/6 mice; conditions: intravenous, mice, 48 hours; for Bioactivity: percentage in vivo Factor VII knockdown: dose 0.03 mg/kg
# Description: The first pair of numbers denotes the number of carbons in the ester, including the carbonyl, for L1 and L2; the pair of numbers in the parenthesis denotes the number of carbons in each branch of the branched alkyl, R1 or if R2 is also branched, R1/R2 (an asterisk denotes a double bond); the number of carbons in R3 is given; and the last line denotes the substitution for R4 and R5. The ATX number is given for reference herein. Calculated Log D values (c-Log D) and calculated pKa (c-pKa) values are given, as well as measured pKa in parenthesis (measured in the Formulation milieu). The c-Log D and c-pKa values are generated by ACD Labs Structure Designer v12.0. Bioactivity is percentage in vivo Factor VII knockdown at a dose of 0.03 mg/kg, unless otherwise designated.
# Using a liver-directed in vivo screen of the liposome libraries, a series of compounds were tested that facilitate high levels of siRNA mediated gene silencing in hepatocytes, the cells comprising the liver parenchyma. Factor VII, a blood-clotting factor, is a suitable target gene for assaying functional siRNA delivery to liver. Because this factor is produced specifically in hepatocytes, gene silencing indicates successful delivery to parenchyma, as opposed to delivery to the cells of the reticulo-endothelial system (e.g., Kupffer cells). Furthermore, Factor VII is a secreted protein that can be readily measured in serum, obviating the need to euthanize animals. Silencing at the mRNA level can be readily determined by measuring levels of protein. This is because the protein's short half-life (2-5 hour). Compositions with siRNA directed to […] were Formulated with the lipid, and comparator sample phosphate-buffered saline (PBS). Female C57BL/6 mice (6-8 week old) were used for FVII siRNA knockdown (KD) experiments.
# All Formulations were administered intravenously via tail vein injection at a dose of 0.03 and 0.1 mg/kg at a dosing volume of […]. Terminal blood collection was performed via cardiac puncture under 2% isoflurane at 48 hours after Formulation injections. Blood was collected into 0.109 M citrate buffer tube and processed by centrifugation at 1200 G for 10 min. Plasma was collected and Factor VII protein levels were analyzed by chromogenic assay (Biophen FVII, Aniara Corporation). A standard curve was constructed using samples from PBS-injected mice and relative Factor VII expression was determined by comparing treated groups to untreated PBS control.
# [1] = Measured pKa of cationic lipids in LNP or micellar formulations by TNS fluorescence; type: physicochemical
# Protocol: pKa of cationic lipids in LNP or micellar Formulations were measured by the procedure of Jayaraman, 2012, Angew. Chem. Int. Ed., 51:8529-33, hereby incorporated by reference. Lipid micelles or LNPs are diluted to 1 mM total lipids in universal buffer with a pH range between 3 and 12 in presence of 0.06 mg/mL 6-(p-toluidino)-2-naphthalenesulfonic acid sodium salt (TNS) reagent (Sigma Aldrich), a pH sensitive fluorescence probe. The anionic TNS molecule fluoresces when associated with the surface of positively charged membranes but is not fluorescent when free in solution, allowing measurement of pKa. The TNS signal is measured on a spectral plate reader. The TNS signal is plotted as function of the pH and analyzed using a non-linear (Boltzman) to determine the pKa.
# Reagents used in the assay include • Hepes free acid, CAS: 7365-45-9 (VWR, 0511-1KG or equivalent) • MES, HPLC grade: (Sigma 105228-100G or equivalent) • Ammonium acetate, HPLC grade: (Sigma 90335-100 mL or equivalent) • Sodium chloride, HPLC grade (VWR EM-MX0475-1 or equivalent) • TNS (Sigma-Aldrich T9792-250 mg or equivalent) • Hydrochloric acid • DMSO • DPBS without calcium and magnesium (GE, SH30028.02 or equivalent) • H2O, HPLC grade (OmniSolv, WX0004-1 or equivalent)
# To prepare a stock solution of Universal Buffer (UB) in a polystyrene sterile storage bottle, prepare 1 L using the following table.
# Reagents are sterile filtered through a 0.2 μm filter. Preparation of UB solution includes adding 5 mL of 1 M HCl to a 350 mL stock solution.
# To prepare a pH ladder, centrifuge tubes (50 mL) with 20 mL UB buffer are used. (pH ˜3) and differing amounts of 2 N NaOH. Stock solutions of TNS at 1 mg/mL in DMSO. 60 μL of TNS at 1 mg/mL is added to 940 μL water to reach a working solution concentration of 0.06 mg/mL. Five test samples, 1 mL of LNP sample in PBS at 1 mM total lipid, and 1 reference sample are analyzed per plate. Samples at different pH values are prepared in wells in which 25 μL of 0.06 mg/mL TNS is added. 15 μL of test samples is added per well. The microplate is incubated for 15 minutes at room temperature in the dark. TNS template can be used to format data from the plate reader. Perform non-linear (Boltzman) regression analysis of the samples in Origin Pro 8 or equivalent software.
# epo protein = assay: In vivo epo protein expression after delivery of lipid encapsulated mouse epo mRNA (epo ELISA); set-up: species or system Balb/c mice; conditions: at 0.1 mg/kg, intravenous, 6 hours, mice
# Protocol: Epo expression following delivery of mRNA using lipid nanoparticles comprising the lipids described herein was measured.
# Female Balb/c mice (6-8 weeks old) were used for evaluation of epo protein expression in vivo following delivery of lipid encapsulated mouse epo mRNA. All formulations were administered intravenously via tail vein injection at a dose of 0.03 and 0.1 mg/kg at a dosing volume of 5 mL/kg. Terminal blood collection was performed via cardiac puncture under 2% isoflurane at 6 hours after Formulation injections. Blood was collected into 0.109 M citrate buffer tube and processed by centrifugation at 5000 rpm for 10 minutes. Serum was collected and epo protein levels were analyzed by epo ELISA assay (R&D systems). A standard curve was constructed using samples from PBS-injected mice and relative […] expression was determined by comparing treated groups to untreated PBS control.
# [2] = measured in the Formulation milieu, TNS fluorescence, 1 mM total lipids
Compound,epo mRNA levels in serum compared with ATX-0002 (FIG. 17) (mouse epo mRNA),Bioactivity: percentage in vivo Factor VII knockdown (Factor VII) [percentage],"pKa [1, 2]",Factor VII knockdown activity compared with ATX-002 (FIG. 18) (Factor VII; both at 0.03 and 0.1 mg/kg),"Δ measured pKa vs ATX-0002 ([1]; change on shortening the ester, vs ATX-0002)",epo expression compared with ATX-002 (FIG. 19) (epo protein),"(pKa) measured pKa [1, 2]"
CCCCCC/C=C\COC(=O)CCCN(CCCC(=O)OC(CCCCCCCC)CCCCCCCC)C(=O)SCCN(C)C [ATX-0087],substantial improvement over ATX-0002,–,–,–,–,–,–
CCCCCC/C=C\COC(=O)CCCCCN(CCCC(=O)OC(CCCCCCC)CCCCCCC)C(=O)SCCN(C)C [ATX-0083],substantial improvement over ATX-0002,65,5.98,–,–,–,–
CCCCCC/C=C\COC(=O)CCCCCN(CCCCCC(=O)OC(CCCCCC)CCCCCC)C(=O)SCCN(C)C [ATX-0084],substantial improvement over ATX-0002,68,6.11,–,–,–,–
CCCCCC/C=C\COC(=O)CCCN(CCCC(=O)OC(CCCCCCC)CCCCCCCC)C(=O)SCCN(C)C (stereo not shown) [ATX-0057],substantial improvement over ATX-0002,86,5.7,substantially more effective than ATX-002,no impact,substantially higher amounts,–
CCCCCC/C=C\COC(=O)CCCN(CCCC(=O)OC(CCCCCCC)CCCCCCC)C(=O)SCCN(C)C [ATX-0081],substantial improvement over ATX-0002,93,6.04,–,–,–,–
CCCCCC/C=C\COC(=O)CCCCCN(CCC(=O)OC(CCCCCCC)CCCCCCC)C(=O)SCCN(C)C [ATX-0082],substantial improvement over ATX-0002,–,–,–,–,–,–
CCCCCC/C=C\COC(=O)CCCN(CCCC(=O)OC(CCCCCC)CCCCCC)C(=O)SCCN(C)C [ATX-0086],substantial improvement over ATX-0002,13,6.05,–,–,–,–
CCCCCCCC(CCCCCCC)OC(=O)CN(CC(=O)OC(CCCCCCC)CCCCCCC)C(=O)SCCCN(CC)CC [ATX-0134],–,25,5.62,–,–,–,–
CCC/C=C/CCC(CC/C=C/CCC)OC(=O)CCCN(CCCC(=O)OC/C=C\CCCCCC)C(=O)SCCN(C)C,–,72,6,–,–,–,–
CCCCCC(CCCCC)OC(=O)CN(CC(=O)OC(CCCCC)CCCCC)C(=O)SCCCN(C)C [drawing 51],–,0,6.28,–,–,–,6.17
CCCCCC/C=C\COC(=O)CCCCCCCN(CCCCCCCC(=O)OC(CCCC)CCCC)C(=O)SCCN(C)C,–,71,6.22,–,–,–,–
CCCCCC/C=C\COC(=O)CCCN(CCCC(=O)OC(CCCCCCC)CCCCCCCC)C(=O)SCCCN(CC)CC (stereo not shown),–,93,6.65,–,–,–,–
CCCCCC/C=C\COC(=O)CCCCCCCN(CCCCCCCC(=O)OC(CCCCCC)CCCCCC)C(=O)SCCN(C)C [ATX-0093],–,70,5.79,–,–,–,–
CCCCCC/C=C\COC(=O)CCCCCCCN(CCCC(=O)OC(CCCCCC)CCCCCC)C(=O)SCCN(C)C,–,63,5.61,–,–,–,–
CCCCCC/C=C\COC(=O)CCCCCN(CCCCC(=O)OC(CCCCCCC)CCCCCCC)C(=O)SCCN(C)C,–,90,5.9,–,–,–,–
